From US6365621B1, “Remedies or preventives for intractable epilepsy” (Pharmaceutical Co., Ltd., priority 1998, dated 2002) come the findings set out here.

The test system of the assay is amygdala kindling development in rats. The assay is described as follows: Development/establishment of amygdala kindling under daily dosing. Format: in vivo, rat. On the procedure: The present inventors have studied the effects of nefiracetam on an development process of the amygdaloid kindled seizures and on establishment of kindling through a method described below, and have determined the efficacy of nefiracetam. The evolution process of kindling is tested by use of rats, in which electrodes are placed in the amygdala and kindling stimulation (50 Hz sine wave, duration of 1 second, once per day) is applied at specific intervals for restoration. On the first day, an afterdischarge-provocation threshold is determined without administration of a pharmaceutical. From the second day, kindling stimulation having intensity of the afterdischarge-provocative threshold is applied to rats administered with a specimen at a variety of administration doses, to thereby investigate an effect of the specimen on the evolution process of kindling.
In this test, the following parameters were evaluated: seizure stage in the process of development of amygdala kindling and afterdischarge duration at the stimulated amygdala.
[Method] Male Wistar rats (5 to 6 weeks old, weight: 200-250 g, Tokyo Jikken Dobutsu) were used. For each rat, in a manner similar to that in Example 1, there were performed anesthetization, setting of an electrode on the amygdala, and fixation of the electrode at the cranial bone. After a recovery period of at least two weeks, kindling stimulation was initiated.
Kindling stimulation was performed for one second per day with a sine wave of 50 Hz. On the first day, the afterdischarge threshold was determined, and from the second day, kindling stimulation was performed at the intensity of the threshold. On the first day, nefiracetam was not administered, in order to determine the threshold. For twenty days from the second day, a dose of nefiracetam (45, 90, or 180 mg/kg) was administered orally, and then kindling stimulation was performed 90 minutes after administration. After nefiracetam was administered for twenty days, kindling stimulation was performed without administration for an additional seven days.

[1] abbreviates: Test 1, 90 mg/kg p.o. daily for twenty days.
Setting [2] is: Test 2, 45 mg/kg p.o. daily for twenty days.
Setting [3] is: Test 2, 180 mg/kg p.o. daily for twenty days.

For the compound `Cc1cccc(C)c1NC(=O)CN1CCCC1=O` [nefiracetam, N-(2,6-dimethylphenyl)-2-(2-oxo-1-pyrrolidinyl)acetamide], the “Day on which stage 5 was reached” value (90 mg/kg, typical rat (control: ninth day)) is recorded as “tenth day”. In addition, the “Day on which seizure stage began to progress” value (90 mg/kg, typical rat (control: third day)) is reported as “sixth day”. In addition, the “Number of stimulations until the completion of stage 5 versus control rats” value (45, 90 or 180 mg/kg p.o. daily) was “no difference was observed”. The “Number of samples showing an increase in afterdischarge threshold/total samples” value runs as follows: under setting [1], 3/6; under setting [2], 0/4; under setting [3], 2/6. The “Number of samples showing stage 5 intermittently/total samples” value under setting [1] is recorded as 4/6, the “Number of samples showing stage 5 intermittently/total samples” value under setting [2] is 0/4 and the “Number of samples showing stage 5 intermittently/total samples” value under setting [3] is 5/6. Besides, the “Stimulation intensity at which afterdischarge was shown” value (one nefiracetam-administered rat, eleventh day) was found to be 150 μA. Besides, the Seizure stage (one nefiracetam-administered rat, eleventh day, 150 μA) turned out to be 4.
